Assay results taken from patent publication US12116344B2, “Crystalline forms of a pharmaceutical compound” (Azafaros B.V., priority 2020, dated 2024).

Tests used:
[1] = test system: glucosylceramide C16:0 and C18:0; test: Glucosylceramide levels in brain homogenate of NPC mice (HPLC-MS/MS); format: in vivo
Procedure: (§1) 24 NPC1 (−/−) mice (groups D to I) were treated per oral gavage (10 mL/kg) with AZ-3102-00 from post-natal day 11 (P11) to post-natal-day 70 (P70). Dosing will start at 1.5 mg/kg from P11 to P25, followed by 3 mg/kg from P26 to P70. Control mice included 6 NPC1 (−/−) and 4 NPC (+/−) mice treated with vehicle and 4 NPC (+/+) mice received AZ-3102-00 (groups A to C).
Brain tissues were homogenized in a solution of ultrapure water:methanol (1:1) with 0.1% formic acid (4 mL for each gram of tissue) using a FastPrep 24™ Microtube homogenizer. Tissues homogenates were then mixed for protein precipitation with a solution of acetonitrile:ultrapure water:methanol (90:5:5) containing 500 nM of GlcCer C17:0 and 0.1% formic acid. After a 5-min incubation at room temperature, the samples were centrifuged for 5 min (13000 rpm, 20° C.) and 50 μL of the supernatants were transferred into a siliconized MTP 96-well plate.
Concentrations of glucosylceramide C16:0 (GlcCer C16:0), glucosylceramide C18:0 (GlcCer C18:0), and glucosylceramide C24:1 (GlcCer C24:1) brain, samples were quantified by HPLC-MS/MS detection in the multiple-reaction-monitoring mode (MRM). Supernatants were analysed by HPLC-MS/MS while using a HALO HILIC column (150*4.6 mm, 2.7 μm) from Advanced Materials Technology for distinguishing between the galactosyl- and -glucosylceramide isomers. […] Analysis of GlcCer C16:0 and GlcCer C18:0 was performed using a gradient with mobile phase A: 5 mM Ammonium Acetate in 94.5% acetonitrile 2.5% Methanol, 2.5% ultrapure water and 0.5% formic acid and mobile phase B: ultrapure Water and 0.1% formic acid. The LLOQ in brain samples for GlcCer 16:0, GlcCer 18:0 and GlcCer 24:1 was […] tissue, respectively.

[2] = test system: NPC (−/−) mice; test: Clinical signs and tremor score in the Niemann-Pick type C mouse model; format: in vivo; conditions: for Overall clinical signs: scores PND 56-70
Procedure: Out of the 38 mice to be included in this study, there were 30 NPC (−/−) knock-out (KO) mice, 4 NPC (+/−) heterozygous mice and 4 NPC (+/+) wild-type (WT, Balb/c) mice. NPC1(−/−) mice have a premature truncation of the protein deleting 11 out of 13 transmembrane domains leaving the first two transmembrane domains intact. NPC1(−/−) mice homozygous for the recessive NIH allele of the Niemann Pick type C1 gene (Npc1 ml N) show a dual deficiency of sphingomyelinase and glucocerebrosidase activity (JAX #003092). Animals were bred on a BALB/c OlaHsd background.
as §1
Definitions of Clinical Scores and Humane Endpoints Clinical Signs were monitored on a daily basis starting at P45 until the end of the study (according to the template shown in FIG. 18). The parameters “weight loss”, “general health”, “clinical findings” and “line specific findings” were recorded and rated according to a score scale. The sum of this score was used for evaluation.
Pink (=light grey) bars represent the appearance and duration of a high level of tremor (sore of 5); whereas the green (=dark grey) bars represent the appearance and duration of a slight or moderate tremor. […] Possible tremor scores: 0: no tremor1: Slight incoordination, slight-moderate tremor; 5: High level of Tremor, uncoordinated movement; 10: Reduced righting reflex (no animal achieved this score).

[3] = whole brain homogenates, daily oral dosing PND 11-70

## OC[C@H]1[C@@H](O)[C@H](O)[C@@H](O)CN1CCCCCOCc1ccc(-c2ccccc2)c(F)c1 [AZ-3102]
[1]; repeat oral administration PND 11-70
  Levels of glucosylceramide C16:0 and C18:0 in the brain: increased levels
[1]; [3]
  Increase of GlcCer 16:0 compared to vehicle treated animals: greater than 2 fold
  Increase of GlcCer 18:0 compared to vehicle treated animals: approximately 9 fold
[2]; NPC (−/−) mice treated P11-P70, observed PND 56-70, vehicle group 4 out of 5
  Mice with a high level of tremor (score of 5): 1 out of 24
[2]; NPC (−/−) mice, treated versus vehicle, PND 56-70
  Initiation, duration and strength of tremor: diminished
[2]; NPC (−/−) mice, treated versus vehicle
  Overall clinical signs: improved clinical signs
[2]; NPC (−/−) mice, treated versus vehicle, listed as Form 3
  Overall clinical signs: improve the clinical signs
